Source: ChEMBL document CHEMBL1201862, “PubChem BioAssay data set” (2004)
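Cells were grown in 96-well plates and exposed to each compound for 48 hours at five concentrations; endpoints were interpolated linearly between bracketing concentrations, or set to the highest concentration if not reached. At the GI50, growth is halved.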 The source made the active and inactive calls. Rule as the data show it: active = GI50 up to about 1.1 µM and inactive = higher.

Columns and labels:
Test in all cases: NCI tumour cell line growth inhibition, 48 h
ACHN = system: ACHN
SK-OV-3 = system: SK-OV-3
MDA-N = system: MDA-N
UACC-257 = system: UACC-257
SNB-75 = system: SNB-75
CCRF-CEM = system: CCRF-CEM
SF-539 = system: SF-539
PC-3 = system: PC-3
RXF 393 = system: RXF 393
Malme-3M = system: Malme-3M
A549 = system: A549
LOX IMVI = system: LOX IMVI
SF-268 = system: SF-268
HOP-92 = system: HOP-92
UACC-62 = system: UACC-62
MDA-MB-231 = system: MDA-MB-231
BT-549 = system: BT-549
SR = system: SR
OVCAR-5 = system: OVCAR-5
SW-620 = system: SW-620

| SMILES | GI50 (ACHN) | GI50 (SK-OV-3) | GI50 (MDA-N) | GI50 (UACC-257) | GI50 (SNB-75) | GI50 (CCRF-CEM) | GI50 (SF-539) | GI50 (PC-3) | GI50 (RXF 393) | GI50 (Malme-3M) | GI50 (A549) | GI50 (LOX IMVI) | GI50 (SF-268) | GI50 (HOP-92) | GI50 (UACC-62) | GI50 (MDA-MB-231) | GI50 (BT-549) | GI50 (SR) | GI50 (OVCAR-5) | GI50 (SW-620) |
| --- | --- | --- | --- | --- | --- | --- | --- | --- | --- | --- | --- | --- | --- | --- | --- | --- | --- | --- | --- | --- |
| FC(F)(F)c1nc2nc(Cl)c(Cl)nc2n1CCCN1CCOCC1 | > 100 µM (inactive) | > 100 µM (inactive) | 35.7 µM (inactive) | 24 µM (inactive) | 79.3 µM (inactive) | 24.7 µM (inactive) | 72.4 µM (inactive) | 61.2 µM (inactive) | 25.4 µM (inactive) | 56 µM (inactive) | > 100 µM (inactive) | 30.4 µM (inactive) | 40.4 µM (inactive) | 32 µM (inactive) | 50.6 µM (inactive) | 78.2 µM (inactive) | 56 µM (inactive) | 0.489 µM (active) | > 100 µM (inactive) | 42.9 µM (inactive) |
| CC1CCN(CC(=O)N2c3ccccc3Sc3cc4ccccc4cc32)CC1 | > 100 µM (inactive) | > 100 µM (inactive) | > 100 µM (inactive) | > 100 µM (inactive) | > 100 µM (inactive) | 84.7 µM (inactive) | > 100 µM (inactive) | > 100 µM (inactive) | > 100 µM (inactive) | > 100 µM (inactive) | > 100 µM (inactive) | > 100 µM (inactive) | > 100 µM (inactive) | > 100 µM (inactive) | > 100 µM (inactive) | > 100 µM (inactive) | > 100 µM (inactive) | 54.6 µM (inactive) | > 100 µM (inactive) | > 100 µM (inactive) |
| O=C(CC(C(=O)O)N1CCOCC1)c1ccccc1 (stereo not given) | 16 µM (inactive) | 37 µM (inactive) | 17.8 µM (inactive) | 13.4 µM (inactive) | 31 µM (inactive) | 3.37 µM (inactive) | 22.6 µM (inactive) | 16.5 µM (inactive) | 18.4 µM (inactive) | 18.8 µM (inactive) | 57.8 µM (inactive) | 17.5 µM (inactive) | 19.5 µM (inactive) | 20.4 µM (inactive) | 14.6 µM (inactive) | 15.3 µM (inactive) | 18.6 µM (inactive) | 16.4 µM (inactive) | 22.3 µM (inactive) | 19.8 µM (inactive) |
| O=C1c2ccccc2C(=O)c2c(NC(=O)C(Cl)CCl)cccc21 (stereo not given) | 13.8 µM (inactive) | 19 µM (inactive) | 10.4 µM (inactive) | 14.7 µM (inactive) | 10.5 µM (inactive) | 0.163 µM (active) | 4.83 µM (inactive) | 9.33 µM (inactive) | 6.64 µM (inactive) | 18.7 µM (inactive) | 20.4 µM (inactive) | 2.44 µM (inactive) | 5.7 µM (inactive) | 3.97 µM (inactive) | 10.1 µM (inactive) | 6.53 µM (inactive) | 17.1 µM (inactive) | < 0.01 µM (active) | 15.6 µM (inactive) | 2.86 µM (inactive) |
| Cn1c2ccccc2c(=NNc2ccc(S(N)(=O)=O)cc2)c2ccccc21 | 8.05 µM (inactive) | 20.2 µM (inactive) | 15.9 µM (inactive) | 17.1 µM (inactive) | 15.1 µM (inactive) | 4.58 µM (inactive) | 22.5 µM (inactive) | 9.75 µM (inactive) | 16.2 µM (inactive) | 17.9 µM (inactive) | 11.7 µM (inactive) | 9.29 µM (inactive) | 18.1 µM (inactive) | 8.85 µM (inactive) | 14.7 µM (inactive) | 9.23 µM (inactive) | 8.39 µM (inactive) | 8.81 µM (inactive) | 24.4 µM (inactive) | 21.8 µM (inactive) |
| Cc1ccc(/C=C2\N=C(N3CCOCC3)NC2=O)cc1 | > 100 µM (inactive) | > 100 µM (inactive) | > 100 µM (inactive) | > 100 µM (inactive) | > 100 µM (inactive) | > 100 µM (inactive) | > 100 µM (inactive) | > 100 µM (inactive) | > 100 µM (inactive) | > 100 µM (inactive) | > 100 µM (inactive) | > 100 µM (inactive) | > 100 µM (inactive) | > 100 µM (inactive) | > 100 µM (inactive) | > 100 µM (inactive) | > 100 µM (inactive) | > 100 µM (inactive) | > 100 µM (inactive) | > 100 µM (inactive) |
| COc1cc(NS(C)(=O)=O)ccc1NCc1c[nH]c2ccc3nc(C)ccc3c12 | 33.9 µM (inactive) | 96.4 µM (inactive) | 41.2 µM (inactive) | 47.8 µM (inactive) | 22.8 µM (inactive) | 17.7 µM (inactive) | 78.2 µM (inactive) | 43.9 µM (inactive) | 22.5 µM (inactive) | > 100 µM (inactive) | > 100 µM (inactive) | 49.5 µM (inactive) | 28.1 µM (inactive) | 40.6 µM (inactive) | 40.6 µM (inactive) | 61.1 µM (inactive) | > 100 µM (inactive) | 4.89 µM (inactive) | 39.5 µM (inactive) | 30.2 µM (inactive) |
